Reference: ChEMBL document CHEMBL4184122, “Chebulinic acid attenuates glutamate-induced HT22 cell death by inhibiting oxidative stress, calcium influx and MAPKs phosphorylation” (2018)
Active and inactive are the calls of the source. No cut-off for these calls is given here.

Test system: HT-22
Experiment: Neuroprotective activity against glutamate induced cell death in mouse HT22 cells assessed as increase in cell viability at 1 to 5 uM after 24 hrs by MTT assay
Assay type: functional, cell-based

With CC(=O)N[C@@H](CS)C(=O)O the Activity was “Active”.
